How the values were obtained:
IspB protein [1] = target: T1, IspB protein (Escherichia coli (strain 55989 / EAEC), UniProt B7LHQ0); assay: Fluorescent Assay
IspB protein [2] = target: T1, IspB protein; assay: Radioactive Assay

T1 sequence (B7LHQ0 whole entry): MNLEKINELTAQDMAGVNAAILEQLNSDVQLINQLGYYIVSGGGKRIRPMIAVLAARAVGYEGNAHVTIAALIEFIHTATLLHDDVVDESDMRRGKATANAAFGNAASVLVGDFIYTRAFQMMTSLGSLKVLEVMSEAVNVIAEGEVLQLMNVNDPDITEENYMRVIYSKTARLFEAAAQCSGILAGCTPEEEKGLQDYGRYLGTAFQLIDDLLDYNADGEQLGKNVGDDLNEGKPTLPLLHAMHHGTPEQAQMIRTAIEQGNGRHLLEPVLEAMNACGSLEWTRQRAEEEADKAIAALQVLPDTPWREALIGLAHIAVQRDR

SMILES: O=P(O)(O)C(O)(Cn1ccnc1)P(=O)(O)O
- IC50 (IspB protein [1]): 0.22 µM
- IC50 (IspB protein [2]): 0.29 µM

Source: BindingDB's records for doi:10.1021/acs.biochem.6b00486 (Academia Sinica, 2016)
